Read-outs that look alike come from different tables or passages of the source.
Assays:
[1] = amide bond, HATU/DIEA
[2] = from CC(C)(C)OC(=O)N[C@H]1CCCN[C@H]1COC1CCC(c2ccccc2CCC(=O)O)CC1; amide bond; 13-membered ring; HATU/DIEA; MeCN; 0.36 mM; 2.0 h
Sprague-Dawley rats = assay: Assessment of wake promotion in Sprague-Dawley rats (EEG/EMG); format: in vivo; details: Rattus norvegicus; PO, 3 mpk, male Sprague-Dawley rats, dosed at ZT5, 6-hour post-dose period; read-out: Mean cortical activation time (% vehicle treatment)
Experimental: Wake promotion was assessed using electroencephalography (EEG) and electromyography (EMG) in adult male Sprague-Dawley rats (350-600 g). All rats (Charles River Laboratories, Raleigh, NC, USA) were intraperitoneally implanted with telemetry devices (F50-EEE, Data Sciences International Inc., M/N, USA) under isoflurane anesthesia. For EEG, stainless steel screws were implanted over frontal cortex and parietal cortex, and reference screws were placed over cerebellum. Additionally, an electrode was placed in neck muscle for EMG. Rats were given carprofen post-surgery and underwent a 7 to 10-day recovery period. Rats habituated to the experimental room for 7 days and were maintained on a 12-hour light-dark cycle.
EEG and EMG data were recorded using the DSI telemetry system and Ponemah software (Data Sciences International Inc., MN, USA). Sleep-wake stages were scored both manually and with Somnivore, a supervised machine learning software platform, in 10 second epocs. Records were visually inspected as needed post-processing.
All test compounds were dissolved in 5% DMSO and suspended in 95% saline with 0.5% methylcellulose and 0.5% tween. […] Unless otherwise indicated, all compounds were dosed orally. Recordings for each rat were initiated immediately after dosing and lasted for 6 hours post-dose.
Two key endpoints include wakefulness time and cortical activation time. Wakefulness time is derived from the sleep-wake stage analysis. Cortical activation time is based on the duration in which frontal gamma oscillatory activity (30-100 Hz), a key feature of wakefulness, was elevated relative to a pre-treatment baseline. Mean cortical activation time was computed relative to vehicle treatment for the 6-hour post-dose period.

human hepatocytes = assay: Hepatocytes stability assay (human hepatocytes); format: in vitro ADME; details: for Extraction Ratio (ER): scaled hepatic clearance divided by liver blood flow, fu assumed unity
How it was run: (§1)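 Cryopreserved pooled (50 donors, mixed gender) human hepatocytes at 1×10^6 cells/mL in Krebs-Henseleit buffer with 1 μM compound (0.1% DMSO), 37 degrees C, sampled 0–240 min. Parent depletion by LC-MS/MS; first-order fit gave T1/2 and CLint, scaled to hepatic clearance via well-stirred model (fu assumed 1); extraction ratio = CL,hep/liver blood flow.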

[3] = Hepatocytes stability assay (human hepatocytes); format: in vitro ADME; details: both sexes, cryopreserved hepatocytes, 1 μM test compound, 1×10^6 cell/mL, 37 degrees C, read-out: CLint (μL/min/million cells)
How it was run: as §1

MDR1 = assay: MDCK-MDR1 permeability assay; format: in vitro ADME; details: dog; for efflux ratio at 2 h, 3 μM: MDCK-MDR1, Papp (basolateral to apical) divided by Papp (apical to basolateral), MDCK-MDR1 cells, read-out: Efflux ratio (ER)
How it was run: (§2)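 Bidirectional transport across MDCK-MDR1 monolayers with test compound at 3 μM in HBSS, Lucifer Yellow 100 μM co-dosed as integrity marker; 2 h at 37 °C, donor and receiver quantified by LC-MS/MS. Papp = dQ/dt × 1/(A×C0); efflux ratio = Papp(B→A)/Papp(A→B), ER>2 taken as active transport.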

MDCK-MDR1 cells = assay: MDCK-MDR1 permeability assay; format: in vitro ADME; details: MDCK-MDR1 cells; for Papp A→B (10^−6 cm/s): apical to basolateral, 3 μM test compound, 2 hours at 37 degrees C
How it was run: as §2

[4] = target: T1, human orexin-2 receptor (OX2R) (Homo sapiens, UniProt O43614); assay: Human OX2R IP1 assay; format: cell-based; details: T-Rex CHO cells stably overexpressing human OX2R, IP1 accumulation, 1 hr at 37 degrees C; mean EC50; ∧ = racemic mixture
T1 construct: expressed in transfected cells
T1 sequence (O43614 1-444): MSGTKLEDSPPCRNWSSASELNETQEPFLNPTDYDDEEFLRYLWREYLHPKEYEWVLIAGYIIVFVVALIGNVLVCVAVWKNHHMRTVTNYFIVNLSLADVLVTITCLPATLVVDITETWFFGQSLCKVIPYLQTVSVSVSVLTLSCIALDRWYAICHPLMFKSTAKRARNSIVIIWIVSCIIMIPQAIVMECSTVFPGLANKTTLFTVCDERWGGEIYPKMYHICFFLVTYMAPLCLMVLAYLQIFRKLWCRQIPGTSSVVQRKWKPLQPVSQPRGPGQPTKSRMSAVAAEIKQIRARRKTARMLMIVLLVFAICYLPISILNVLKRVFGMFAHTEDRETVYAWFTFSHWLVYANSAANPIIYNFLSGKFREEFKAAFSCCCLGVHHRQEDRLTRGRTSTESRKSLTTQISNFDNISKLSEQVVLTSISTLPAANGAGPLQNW
How it was run: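 Doxycycline-induced T-Rex CHO cells stably expressing human OX2R treated with compound 1 hr at 37 °C in LiCl-containing buffer, pH 7.4. IP1 accumulation quantified by HTRF competitive immunoassay; EC50 reported as mean ± S.E.M.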

Molecule | Extraction Ratio (ER) (human hepatocytes) | hepatocyte CLint at 1 μM [3] | efflux ratio at 2 h, 3 μM (MDR1) | Papp A→B (10^−6 cm/s) (MDCK-MDR1 cells) | also measured
CC(C)(C)OC(=O)N[C@H]1CCCN2C(=O)CCOc3ccccc3C3CCC(CC3)OC[C@@H]12 | – | – | – | – | ring closure, yield after HPLC ([1]; from CC(C)(C)OC(=O)N[C@H]1CCCN[C@H]1COC1CCC(c2ccccc2OCCC(=O)O)CC1, 14-membered ring, MeCN, 7.4 mM, 18.0 h): 80.3%
CC(C)(C)OC(=O)N[C@H]1CCCN2C(=O)CCc3ccccc3C3CCC(CC3)OC[C@@H]12 | – | – | – | – | ring closure, conversion [2]: 40%; ring closure, yield after HPLC ([1]; from CC(C)(C)OC(=O)N[C@H]1CCCN[C@H]1COC1CCC(c2ccccc2CCC(=O)O)CC1, 13-membered ring, MeCN, 0.36 mM, 2.0 h): 19%
CS(=O)(=O)N[C@H]1CCCN2C(=O)COc3nccnc3C3CCC(CC3)OCC12 (stereo partly drawn) [Compound 55] | <0.22 | < 1.9 µL/min/1e6 cells | 77 | – | response vs control in vivo at 3 mg/kg (Sprague-Dawley rats): 145%; Papp A→B at 2 h, 3 μM (MDR1; MDCK-MDR1, MDCK-MDR1 cells, apical to basolateral, 3 μM test compound, 2 hours at 37 degrees C): 0.092 ×10⁻⁶ cm/s
CS(=O)(=O)N[C@H]1CCCN2C(=O)COc3nnccc3C3CCC(CC3)OCC12 (stereo partly drawn) [Compound 56] | <0.22 | < 1.9 µL/min/1e6 cells | 5.2 | 0.13 10^−6 cm/s | –
CS(=O)(=O)N[C@H]1CCCN2C(=O)COc3nnccc3[C@H]3CC[C@H](CC3)OC[C@@H]12 [Compound 66] | <0.22 | – | – | <0.047 10^−6 cm/s | CLint (μL/min/million cells) (human hepatocytes; 1 μM test compound, 1×10^6 cell/mL, 37 degrees C): <1.9 μL/min/million cells; EC50 [4]: < 100 nM; Efflux ratio (ER) (MDCK-MDR1 cells; Papp (basolateral to apical) divided by Papp (apical to basolateral), 3 μM): >9.5
tert-butyl ((2^1S,2^4S,5^2R,5^3S)-6-oxo-3,11-dioxa-5(2,1)-piperidina-1(1,2)-benzena-2(1,4)-cyclohexanacycloundecaphane-5^3-yl)carbamate | – | – | – | – | ring closure, yield after HPLC ([1]; 16-membered ring, DMF/MeCN 1:2, 16.3 mM, 25.0 °C): 88.1%
